Experimental data from patent US20250154169A1, “COMPOUNDS AND METHODS FOR MODULATING SPLICING” (REMIX THERAPEUTICS INC., priority 2021, published 2025).

Tests used:
HTT mRNA = assay: Splicing RT-qPCR assay, HTT canonical (CJ) and alternative (AJ) junction mRNA; format: cell-based, human; conditions: Homo sapiens, A673 or K562 cells, 24 hours compound treatment; for IC50: 24 h, read-out: HTT CJ (IC50, decrease in canonical junction mRNA); for AC50: read-out: HTT AJ (AC50, increase in alternative junction mRNA)
Experimental: (§1) Compounds described herein were used to modulate RNA transcript abundance in cells. The expression of a target mRNA was measured by detecting the formation of an exon-exon junction in the canonical transcript (CJ). A compound mediated exon-inclusion event was detected by observing an increase in formation of a new junction with an alternative exon (AJ). Real-time qPCR assays were used to detect these splicing switches and interrogate the potency of various compounds towards different target genes. A high-throughput real time quantitative PCR (RT-qPCR) assay was developed to measure these two isoforms of the mRNA (CJ and AJ) for exemplary genes, such as HTT, SMN2, and MYB, together with a control housekeeping gene, GAPDH or GUSB or PPIA, used for normalization. Briefly, the A673 or K562 cell line was treated with various compounds described herein (e.g., compounds of Formula (I)). After treatment, the levels of the HTT, MYB, or SMN2 mRNA targets were determined from each sample of cell lysate by cDNA synthesis followed by qPCR.
(§2) • Cells-to-CT 1-step kit: ThermoFisher A25602, Cells-to-CT lysis reagent: ThermoFisher 4391851C, TaqMan™ Fast Virus 1-Step Master Mix: ThermoFisher 4444436 • GAPDH: VIC-PL, ThermoFisher 4326317E (Assay: Hs99999905_m1)—used for K562/suspension cell lines • GUSB: VIC-PL, ThermoFisher 4326320E (Assay: Hs99999908_m1)—used for K562/suspension cell lines • PPIA: VIC-PL, ThermoFisher 4326316E (Assay: Hs99999904_m1)—used for A673/adherent cell lines
(§3) The A673 cell line was cultured in DMEM with 10% FBS. Cells were diluted with full growth media and plated in a 96-well plate (15,000 cells in 100 ul media per well). The plate was incubated at 37° C. with 5% CO2 for 24 hours to allow cells to adhere. An 11-point 3-fold serial dilution of the compounds was made in DMSO then diluted in media in an intermediate plate. Compounds were transferred from the intermediate plate to the cell plate with the top dose at a final concentration of 10 uM in the well. Final DMSO concentration was kept at or below 0.25%. The cell plate was returned to the incubator at 37° C. with 5% CO2 for an additional 24 hours.
(§4) The K562 cell line was cultured in IMDM with 10% FBS. For K562, cells were diluted with full growth media and plated in either a 96-well plate (50,000 cells in 50 uL media per well) or a 384-well plate (8,000-40,000 cells in 45 uL media per well). An 11-point 3-fold serial dilution of the compounds were made in DMSO then diluted in media in an intermediate plate. Compound was transferred from the intermediate plate to the cell plate with the top dose at a final concentration of 10 uM in the well. Final DMSO concentration was kept at or below 0.25%. Final volume was 100 uL for 96-well plate and 50 uL for 384-well plate. The cell plate was then placed in an incubator at 37° C. with 5% CO2 for 24 hours.
(§5) The cells were then gently washed with 50 uL-100 uL cold PBS before proceeding to addition of lysis buffer. 30 uL-50 uL of room temperature lysis buffer with DNAse I (and optionally RNAsin) was added to each well. Cells were shaken/mixed thoroughly at room temperature for 5-10 minutes for lysis to take place and then 3 uL-5 uL of room temperature stop solution was added and wells were shaken/mixed again. After 2-5 minutes, the cell lysate plate was transferred to ice for RT-qPCR reaction setup. The lysates could also be frozen at −80° C. for later use.
(§6) In some cases, a direct lysis buffer was used. An appropriate volume of 3× lysis buffer (10 mM Tris, 150 mM NaCl, 1.5%-2.5% Igepal and 0.1-1 U/uL RNAsin, pH 7.4) was directly added to either K562 or A673 cells in media and mixed by pipetting 3 times. The plates were then incubated at room temperature with shaking/rocking for 20-50 minutes to allow for lysis to take place. After this time, the cell lysate plate was transferred to ice to set up for the RT-qPCR reactions. The lysates could also be frozen at −80° C. for later use. […]

MYB mRNA = assay: Splicing RT-qPCR assay, MYB canonical (CJ) and alternative (AJ) junction mRNA; format: cell-based, human; conditions: Homo sapiens, 24 h, A673 or K562 cells, 24 hours compound treatment, RT-qPCR; for AC50: read-out: MYB AJ (AC50, increase in alternative junction mRNA); for IC50: read-out: MYB CJ (IC50, decrease in canonical junction mRNA)
Experimental: as §1, §2, §3, §4, §5, §6

Compound | IC50 (HTT mRNA) | AC50 (HTT mRNA) | AC50 (MYB mRNA) | IC50 (MYB mRNA)
CCn1cc2c(N3CCC4(CC3)CCN4C)ccc(C(=O)Nc3cc(F)c4nc(C)cn4c3)c2n1 [Compound 401, 2-ethyl-N-(8-fluoro-2-methylimidazo[1,2-a]pyridin-6-yl)-4-(1-methyl-1,7-diazaspiro[3.5]nonan-7-yl)-2H-indazole-7-carboxamide 2,2,2-trifluoroacetate] | 100 to 1000 nM | 100 to 1000 nM | < 100 nM | < 100 nM
Cc1cn2cc(NC(=O)c3ccc(N4CCC(N)CC4)c4cn(C)nc34)cc(F)c2n1 [Compound 402, 4-(4-aminopiperidin-1-yl)-N-{8-fluoro-2-methylimidazo[1,2-a]pyridin-6-yl}-2-methylindazole-7-carboxamide] | 100 to 1000 nM | 100 to 1000 nM | < 100 nM | < 100 nM
CCn1cc2c(N3CCNC(CO)C3)ccc(C(=O)Nc3cc(F)c4nc(C)cn4c3)c2n1 (stereo not drawn) [Compound 403, 2-ethyl-N-{8-fluoro-2-methylimidazo[1,2-a]pyridin-6-yl}-4-[3-(hydroxymethyl)piperazin-1-yl]indazole-7-carboxamide] | 1000 to 10000 nM | 1000 to 10000 nM | 100 to 1000 nM | 100 to 1000 nM
Cc1nc2c(C)nc(NC(=O)c3ccc(N4CCNCC4)c4cn(C)nc34)cc2o1 [Compound 405, N-{2,4-dimethyl-[1,3]oxazolo[4,5-c]pyridin-6-yl}-2-methyl-4-(piperazin-1-yl) indazole-7-carboxamide] | 1000 to 10000 nM | 1000 to 10000 nM | 100 to 1000 nM | < 100 nM
Cn1cc2c(N3CCNCC3)ccc(C(=O)Nc3cc(F)c4nc(CO)oc4c3)c2n1 [Compound 406, N-[4-fluoro-2-(hydroxymethyl)-1,3-benzoxazol-6-yl]-2-methyl-4-(piperazin-1-yl) indazole-7-carboxamide] | 100 to 1000 nM | 100 to 1000 nM | < 100 nM | < 100 nM
CCn1cc2c(N3CC[C@H](NC)C3)cc(F)c(C(=O)Nc3cc(F)c4nc(C)cn4c3)c2n1 [Compound 478, 2-ethyl-6-fluoro-N-{8-fluoro-2-methylimidazo[1,2-a]pyridin-6-yl}-4-[(3S)-3-(methylamino)pyrrolidin-1-yl]indazole-7-carboxamide; bis(trifluoroacetic acid)] | 1000 to 10000 nM | > 10000 nM | 100 to 1000 nM | < 100 nM
CCn1cc2c(N3CC[C@@H](NC)C3)cc(F)c(C(=O)Nc3cc(F)c4nc(C)cn4c3)c2n1 [Compound 479, 2-ethyl-6-fluoro-N-{8-fluoro-2-methylimidazo[1,2-a]pyridin-6-yl}-4-[(3R)-3-(methylamino)pyrrolidin-1-yl]indazole-7-carboxamide; trifluoroacetic acid] | 1000 to 10000 nM | 1000 to 10000 nM | < 100 nM | < 100 nM
CCn1cc2c(N3CCN(C)CC3)cc(F)c(C(=O)Nc3cc(F)c4nc(C)cn4c3)c2n1 [Compound 481, 2-ethyl-6-fluoro-N-{8-fluoro-2-methylimidazo[1,2-a]pyridin-6-yl}-4-(4-methylpiperazin-1-yl) indazole-7-carboxamide] | 100 to 1000 nM | 1000 to 10000 nM | 100 to 1000 nM | < 100 nM
CCn1cc2c(N3CC4(CCCN4)C3)ccc(C(=O)Nc3cc(F)c4nc(C)cn4c3)c2n1 [Compound 482, 4-{2,5-diazaspiro[3.4]octan-2-yl}-2-ethyl-N-{8-fluoro-2-methylimidazo[1,2-a]pyridin-6-yl}indazole-7-carboxamide] | > 10000 nM | > 10000 nM | 1000 to 10000 nM | 1000 to 10000 nM
Cc1cc(NC(=O)c2ccc(N3CCNCC3)c3cn(C)nc23)c(O)c2cn(C)nc12 [Compound 484, N-(4-hydroxy-2,7-dimethylindazol-5-yl)-2-methyl-4-(piperazin-1-yl) indazole-7-carboxamide] | > 10000 nM | > 10000 nM | > 10000 nM | > 10000 nM
Cc1cn2cc(NC(=O)c3ccc(N4CCOCC4)c4cn(C)nc34)cc(F)c2n1 [Compound 486, N-{8-fluoro-2-methylimidazo[1,2-a]pyridin-6-yl}-2-methyl-4-(morpholin-4-yl) indazole-7-carboxamide] | 100 to 1000 nM | 100 to 1000 nM | 100 to 1000 nM | 100 to 1000 nM
Cc1cn2cc(NC(=O)c3ccc(N4CCCC4)c4cn(C)nc34)cc(F)c2n1 [Compound 487, N-{8-fluoro-2-methylimidazo[1,2-a]pyridin-6-yl}-2-methyl-4-(pyrrolidin-1-yl) indazole-7-carboxamide] | 1000 to 10000 nM | 1000 to 10000 nM | 1000 to 10000 nM | 1000 to 10000 nM
Cc1nnc2ccc(NC(=O)c3ccc(N4CCNCC4)c4cn(C)nc34)cn12 [Compound 488, 2-methyl-N-{3-methyl-[1,2,4]triazolo[4,3-a]pyridin-6-yl}-4-(piperazin-1-yl) indazole-7-carboxamide] | > 10000 nM | > 10000 nM | > 10000 nM | > 10000 nM
Cc1nc2cc(NC(=O)c3ccc(N4CCNCC4)c4cn(C)nc34)ccn2n1 [Compound 489, 2-methyl-N-{2-methyl-[1,2,4]triazolo[1,5-a]pyridin-7-yl}-4-(piperazin-1-yl) indazole-7-carboxamide] | > 10000 nM | > 10000 nM | > 10000 nM | > 10000 nM
Cc1cn2cc(NC(=O)c3ccc(N4CCNCC4)c4c[nH]nc34)cc(F)c2n1 [Compound 490, N-{8-fluoro-2-methylimidazo[1,2-a]pyridin-6-yl}-4-(piperazin-1-yl)-2H-indazole-7-carboxamide] | > 10000 nM | > 10000 nM | 1000 to 10000 nM | 1000 to 10000 nM
CCn1cc2c(N3CC4(CCNC4)C3)ccc(C(=O)Nc3cc(F)c4nc(C)cn4c3)c2n1 [Compound 491, 4-{2,6-diazaspiro[3.4]octan-2-yl}-2-ethyl-N-{8-fluoro-2-methylimidazo[1,2-a]pyridin-6-yl}indazole-7-carboxamide] | 1000 to 10000 nM | > 10000 nM | 1000 to 10000 nM | 100 to 1000 nM
CCn1cc2c(N3CC4(CCNCC4)C3)ccc(C(=O)Nc3cc(F)c4nc(C)cn4c3)c2n1 [Compound 492, 4-{2,7-diazaspiro[3.5]nonan-2-yl}-2-ethyl-N-{8-fluoro-2-methylimidazo[1,2-a]pyridin-6-yl}indazole-7-carboxamide] | 1000 to 10000 nM | > 10000 nM | 1000 to 10000 nM | 100 to 1000 nM
CN1CCN(c2ccc(C(=O)Nc3cc(F)c4nc(CO)oc4c3)c3nn(C)cc23)CC1 [Compound 494, N-[4-fluoro-2-(hydroxymethyl)-1,3-benzoxazol-6-yl]-2-methyl-4-(4-methylpiperazin-1-yl) indazole-7-carboxamide] | > 10000 nM | > 10000 nM | > 10000 nM | > 10000 nM
